Results published in patent US20190185479A1, “BICYCLIC NITROGENATED HETEROCYCLIC COMPOUND” (MITSUBISHI TANABE PHARMA CORPORATION, priority 2016, published 2019).

Columns and labels:
Type in all cases: biochemical
Human PDE7B (hPDE7B) = target: T1, Human PDE7B (hPDE7B) (Homo sapiens, UniProt Q9NP56); assay: Measurement of PDE7 inhibitory activity (Experimental Example 1; residual cAMP, LANCE Ultra cAMP TR-FRET); conditions: cAMP 3 nmol/L, room temperature 60 minutes
T1 construct: made in house; host or cells: COS-7 cells
Procedure: Human PDE7B (hPDE7B) was isolated from COS-7 cells transfected with plasmids encoding hPDE7B according to the method described in a reference, Biochemical and Biophysical Research Communication, 271, p. 575-583 (2000). The resulting enzyme solution was used in the PDE assay.
(§1) PDE7 inhibitory assay was carried out by reacting the mixture of a compound, hPDE7B, and cAMP, and measuring the residual cAMP by a detection method using LANCE (registered trademark) Ultra cAMP Detection Kit (ParkinElmer). The compound was dissolved in DMSO, and diluted so that the concentration would become 50 times of the final concentration. The hPDE7B and cAMP were diluted with an assay buffer (50 mmol/L Tris-HCl, 1 mmol/L MgCl2, 0.1% BSA, 0.5 mmol/L DTT, pH7.5) so that the hPDE7B would have an appropriate enzyme activity and the concentration of cAMP would become 6 nmol/L. To a 96 well plate were added the compound (2 μL) (DMSO final concentration: 2%), hPDE7B (48 μL), and cAMP (50 μL) (concentration at the reaction: 3 nmol/L), and the resulting mixture was reacted at room temperature for 60 minutes. The reaction solution (20 μL) was subjected to a TR-FRET method according to the protocol specified by the kit to measure the concentration of the residual cAMP. In the assay, to a tracer solution specified by the kit was added 0.5 mmol/L of 3-isobutyl-1-methylxanthine (IBMX, nonselective PDE inhibitor) in order to stop the PDE enzyme reaction after the completion of reaction until the measurement.
The reaction without a compound was defined as “0% inhibition”, the reaction without hPDE7B was defined as “100% inhibition”, and the inhibition rate of the compound was calculated by the following equation.
Inhibition rate of compound (%)={(Residual cAMP concentration at the addition of compound−Residual cAMP concentration in 0% inhibition)/(Residual cAMP concentration in 100% inhibition−Residual cAMP concentration in 0% inhibition)}×100

hPDE8B = target: T2, hPDE8B (Homo sapiens, UniProt O95263); assay: PDE8 inhibition assay (IC50), Experimental Example 3; conditions: for IC50: hPDE8B, read-out: PDE inhibition assay IC50, PDE8
T2 construct: purchased SB Drug Discovery
Procedure: as §1
(§2) The prediction of PDE7 selectivity was evaluated by comparing each IC50 value of a compound against PDE4, 8, and 10 with the IC50 value of said compound against PDE7B.
(§3) hPDE4D, hPDE8B, and hPDE10A were prepared by the same method as [Method for preparing samples 2].
(§4) PDE4, 8, and 10 inhibitory assays were carried out by the same method as [Assay procedure 1].
(§5) The reaction without a compound wad defined as “0% inhibition”, the reaction without each PDE was defined as “100% inhibition”, and the calculation of IC50 value was carried out by the same method as <Method for data calculation 1>.

hPDE4D = target: T3, hPDE4D (Homo sapiens, UniProt Q08499); assay: PDE4 inhibition assay (IC50), Experimental Example 3; conditions: hPDE4D; read-out: PDE inhibition assay IC50, PDE4
T3 construct: purchased SB Drug Discovery
Procedure: as §1, §2, §3, §4, §5

T1 sequence (Q9NP56 whole entry): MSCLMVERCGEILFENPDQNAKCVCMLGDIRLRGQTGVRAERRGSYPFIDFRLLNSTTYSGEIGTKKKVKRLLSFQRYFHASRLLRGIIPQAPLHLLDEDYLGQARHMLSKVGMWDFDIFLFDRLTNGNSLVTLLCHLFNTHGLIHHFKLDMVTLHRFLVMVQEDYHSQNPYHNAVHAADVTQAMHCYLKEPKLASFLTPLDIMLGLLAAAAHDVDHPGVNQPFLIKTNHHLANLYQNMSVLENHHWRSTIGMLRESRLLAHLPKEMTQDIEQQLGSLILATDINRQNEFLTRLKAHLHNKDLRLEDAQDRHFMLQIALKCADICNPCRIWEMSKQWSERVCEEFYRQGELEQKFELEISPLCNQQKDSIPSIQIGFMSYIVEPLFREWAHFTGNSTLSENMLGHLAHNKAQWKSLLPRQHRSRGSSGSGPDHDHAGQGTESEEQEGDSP
T2 sequence (O95263 whole entry): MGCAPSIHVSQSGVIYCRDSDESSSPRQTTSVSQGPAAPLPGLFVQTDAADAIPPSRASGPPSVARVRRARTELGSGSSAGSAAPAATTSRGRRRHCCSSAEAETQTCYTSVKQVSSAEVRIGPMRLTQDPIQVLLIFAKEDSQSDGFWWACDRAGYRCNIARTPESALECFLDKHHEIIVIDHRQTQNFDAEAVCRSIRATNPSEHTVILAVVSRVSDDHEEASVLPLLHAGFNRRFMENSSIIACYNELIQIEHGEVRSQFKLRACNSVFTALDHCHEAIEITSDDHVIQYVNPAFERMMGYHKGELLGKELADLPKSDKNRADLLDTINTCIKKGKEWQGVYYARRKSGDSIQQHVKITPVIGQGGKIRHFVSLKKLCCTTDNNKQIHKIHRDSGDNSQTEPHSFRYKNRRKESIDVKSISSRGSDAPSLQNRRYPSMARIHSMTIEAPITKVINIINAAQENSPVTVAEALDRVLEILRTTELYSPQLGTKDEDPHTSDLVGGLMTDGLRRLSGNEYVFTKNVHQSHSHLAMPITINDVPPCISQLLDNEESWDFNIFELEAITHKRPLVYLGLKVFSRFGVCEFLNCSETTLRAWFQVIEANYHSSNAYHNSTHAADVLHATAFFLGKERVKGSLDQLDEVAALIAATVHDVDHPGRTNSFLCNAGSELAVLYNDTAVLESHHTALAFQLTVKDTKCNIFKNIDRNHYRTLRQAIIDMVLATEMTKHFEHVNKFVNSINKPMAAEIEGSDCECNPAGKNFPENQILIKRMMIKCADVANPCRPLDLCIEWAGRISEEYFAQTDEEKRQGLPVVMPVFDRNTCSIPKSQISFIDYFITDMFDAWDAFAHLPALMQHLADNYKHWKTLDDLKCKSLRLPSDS
T3 sequence (Q08499 whole entry): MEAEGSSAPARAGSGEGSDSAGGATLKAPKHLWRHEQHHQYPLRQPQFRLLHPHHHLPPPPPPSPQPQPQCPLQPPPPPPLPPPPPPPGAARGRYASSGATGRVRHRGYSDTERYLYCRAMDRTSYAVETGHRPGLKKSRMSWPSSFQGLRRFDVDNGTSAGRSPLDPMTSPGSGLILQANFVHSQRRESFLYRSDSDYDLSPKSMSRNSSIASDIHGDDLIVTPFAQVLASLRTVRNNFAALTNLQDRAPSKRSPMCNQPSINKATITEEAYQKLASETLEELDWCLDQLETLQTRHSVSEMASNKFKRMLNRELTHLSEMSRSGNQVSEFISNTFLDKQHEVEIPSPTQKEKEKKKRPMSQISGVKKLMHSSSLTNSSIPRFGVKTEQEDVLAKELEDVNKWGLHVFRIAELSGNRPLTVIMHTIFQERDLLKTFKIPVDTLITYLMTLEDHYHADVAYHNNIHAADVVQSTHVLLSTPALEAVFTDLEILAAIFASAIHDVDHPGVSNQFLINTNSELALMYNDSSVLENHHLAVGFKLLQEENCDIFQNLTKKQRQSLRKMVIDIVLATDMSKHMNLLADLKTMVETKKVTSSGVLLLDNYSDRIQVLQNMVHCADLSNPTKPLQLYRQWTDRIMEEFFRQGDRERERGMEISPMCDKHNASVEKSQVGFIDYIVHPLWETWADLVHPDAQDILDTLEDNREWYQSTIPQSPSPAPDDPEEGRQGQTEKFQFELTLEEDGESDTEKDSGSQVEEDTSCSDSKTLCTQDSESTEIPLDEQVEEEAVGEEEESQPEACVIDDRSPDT

| IC50 (Human PDE7B (hPDE7B)) | SMILES | also measured |
| --- | --- | --- |
| 300 nM | C=C(C)[C@@H]1CC[C@@H](C)[C@@H](n2nnc3c(N)ncnc32)C1 [Example 106, 3-[(1S,2R,5R)-2-methyl-5-(prop-1-en-2-yl)cyclohexyl]-3H-[1,2,3]triazolo[4,5-d]pyrimidin-7-amine] | IC50 (hPDE8B): 4380 nM |
| 120 nM | CC[C@H]1CC[C@H](n2nnc3c(N)ncnc32)CC1 [Example 100] | IC50 (hPDE8B): 1800 nM |
| 80 nM | Nc1ncnc2c1nnn2C1CCCC(CF)C1 (centres unmarked) [Example 118] | IC50 (hPDE4D): 4250 nM; inhibition at 1 µM (hPDE8B; at 1 μmol/L, read-out: inhibition rate (%) at prescribed concentration, PDE8): 55% |
| 160 nM | CC(C)(C)OC(=O)N1CCC[C@H](n2nnc3c(N)ncnc32)C1 [Example 13, Tert-butyl (3S)-3-(7-amino-3H-[1,2,3]triazolo[4,5-d]pyrimidin-3-yl)piperidine-1-carboxylate] | IC50 (hPDE8B): 220 nM |
| 560 nM | CC1(n2nnc3c(N)ncnc32)CCCCC1 [Example 7] | inhibition at 10 µM (hPDE8B; at 10 μmol/L, read-out: inhibition rate (%) at prescribed concentration, PDE8): 50% |
| 210 nM | Nc1ncnc2c1nnn2C1CCCC(COc2ccccc2)C1 (centres unmarked) [Example 125] | IC50 (hPDE8B): 1110 nM |
| 610 nM | Nc1ncnc2c(C3CCCCC3)onc12 [Example 253, 3-(cyclohexyl)-isoxazolo[4,3-d]pyrimidin-8-amine] | IC50 (hPDE4D): 7380 nM; IC50 (hPDE8B): 3810 nM |
| 300 nM | Nc1nccn2c(N3CCCC(F)(F)C3)nnc12 [Example 47] | – |
| 380 nM | COC1CCCCC1n1nnc2c(N)ncnc21 (centres unmarked) [Example 116] | – |
| 530 nM | CC1CC(c2nnc3c(N)nccn23)CC(F)(F)C1 (single isomer, unassigned) [Example 215] | – |
| 260 nM | Nc1ncnc2c1nnn2C1CCCC(CO)C1 (centres unmarked) [Example 124] | – |
| 20 nM | CCOc1nc(N)c2nnn(C3CCCCC3)c2n1 [Example 93, 3-cyclohexyl-5-ethoxy-3H-[1,2,3]triazolo[4,5-d]pyrimidin-7-amine] | – |
| 360 nM | Nc1ncnc2c1nnn2[C@H]1CCC[C@H](C(F)(F)F)C1 (relative stereo) [Example 86, 3-[trans-3-(trifluoromethyl)cyclohexyl]-3H-[1,2,3]triazolo[4,5-d]pyrimidin-7-amine] | – |
| 4 nM | CC1CCCC(c2nnc3c(N)ncnn23)C1 (single isomer, unassigned) [Example 71, 3-(cis-3-methylcyclohexyl) [1,2,4]triazolo[3,4-f][1,2,4]triazin-8-amine] | – |
| 540 nM | CC1CCN(c2nnc3c(N)nccn23)CC1C (single isomer, unassigned) [Example 228, 3-(3,4-dimethylpiperidin-1-yl) [1,2,4]triazolo[4,3-a]pyrazin-8-amine] | – |
| 90 nM | C[C@H]1CCCCN1c1nnc2c(N)nccn12 [Example 21, 3-(2-methylpiperidin-1-yl) [1,2,4]triazolo[4,3-a]pyrazin-8-amine] | – |
| 50 nM | Nc1ncnc2c1nnn2C1CCCCC1F (racemic) [Example 97, 3-(cis-2-fluorocyclohexyl)-3H-[1,2,3]triazolo[4,5-d]pyrimidin-7-amine] | – |
| 890 nM | C[C@]1(O)CC[C@@H](n2nnc3c(N)ncnc32)CC1 [Example 9] | – |
| 240 nM | CC1CCC(C)N(c2nnc3c(N)nccn23)C1 (racemic) [Example 59, 3-(2,5-dimethylpiperidin-1-yl) [1,2,4]triazolo[4,3-a]pyrazin-8-amine] | – |
| 400 nM | CC(C)(C)OC(=O)N1CCCC(n2nnc3c(N)ncnc32)C1 (centres unmarked) [Example 11] | – |
| 2.8 nM | CC1CCC(C)(C)CN1c1nnc2c(N)nccn12 (single isomer, unassigned) [Example 237, 3-(2,5,5-trimethylpiperidin-1-yl) [1,2,4]triazolo[4,3-a]pyrazin-8-amine] | – |
| 20 nM | CC1CCC(C)N(c2nnc3c(N)nccn23)C1 (racemic) [Example 58, 3-(2,5-dimethylpiperidin-1-yl) [1,2,4]triazolo[4,3-a]pyrazin-8-amine] | – |
| 380 nM | Nc1ncnc2c1nnn2C1CCCC(CC(F)(F)F)C1 (centres unmarked) [Example 120] | – |
| 520 nM | Nc1ncnc2c1nnn2C1CCCc2ccccc21 (centres unmarked) [Example 33] | – |

| IC50 (Human PDE7B (hPDE7B)) | SMILES | also measured |
| --- | --- | --- |
| 70 nM | Nc1nccn2c(C3CCC4CC4C3)nnc12 (centres unmarked) [Example 158, 3-(bicyclo[4.1.0]hept-3-yl) [1,2,4]triazolo[4,3-a]pyrazin-8-amine] | – |
| 730 nM | Cc1cnc(C2CCCC(n3nnc4c(N)ncnc43)C2)s1 (centres unmarked) [Example 127] | – |
| 620 nM | CC(C)(C)OC(=O)N1CCC[C@@H](n2nnc3c(N)ncnc32)C1 [Example 12, tert-butyl (3R)-3-(7-amino-3H-[1,2,3]triazolo[4,5-d]pyrimidin-3-yl)piperidine-1-carboxylate] | – |
| 280 nM | Nc1ncnc2c1nnn2C1CCCC(COCc2ccccc2)C1 (centres unmarked) [Example 126] | IC50 (hPDE8B): 2650 nM |
| 220 nM | Nc1nccn2c(N3CCCCC3C(F)(F)F)nnc12 (centres unmarked) [Example 39] | – |
| 420 nM | COC1CCCC(n2nnc3c(N)ncnc32)C1 (centres unmarked) [Example 123] | – |
| 450 nM | Nc1ncnc2c1nnn2[C@H]1CC[C@H](C(F)(F)F)CC1 [Example 103] | – |
| 320 nM | Nc1nccn2c(C3CCCc4ccccc43)nnc12 (racemic) [Example 17, 3-(1,2,3,4-tetrahydronaphthalen-1-yl)-[1,2,4]triazolo[4,3-a]pyrazin-8-amine] | – |
| 870 nM | COC1CCCC(n2nnc3c(N)ncnc32)C1 (centres unmarked) [Example 121] | – |
| < 10 nM | CC1CCC(F)(F)CC1c1nnc2c(N)ncnn12 (racemic) [Example 76, 3-(cis-5,5-difluoro-2-methylcyclohexyl) [1,2,4]triazolo[3,4-f][1,2,4]triazin-8-amine] | – |
| 190 nM | CC1CC(C)CN(c2nnc3c(N)nccn23)C1 (single isomer, unassigned) [Example 227, 3-[trans-3,5-dimethylpiperidin-1-yl][1,2,4]triazolo[4,3-a]pyrazin-8-amine] | – |
| 310 nM | Nc1nccn2c(C3CCc4ccccc4C3)nnc12 (racemic) [Example 77, 3-(1,2,3,4-tetrahydronaphthalen-2-yl)-[1,2,4]triazolo[4,3-a]pyrazin-8-amine] | – |
| 90 nM | Nc1ncnc2c1nnn2-c1cccc(OCc2ccccc2)c1 [Example 139, 3-[3-(benzyloxy)phenyl]-3H-[1,2,3]triazolo[4,5-d]pyrimidin-7-amine] | – |
| 130 nM | Nc1nccn2c(C3CCCC4(CC4)C3)nnc12 (single isomer, unassigned) [Example 209, 3-(spiro[2,5]oct-5-yl) [1,2,4]triazolo[4,3-a]pyrazin-8-amine] | – |
| 260 nM | CCCC1CCCCN1c1nnc2c(N)nccn12 (racemic) [Example 79, 3-(2-propylpiperidin-1-yl)-[1,2,4]triazolo[4,3-a]pyrazin-8-amine] | – |
| 540 nM | Nc1nccn2c(N3CCCC(C(F)(F)F)C3)nnc12 (single isomer, unassigned) [Example 225] | – |
| 840 nM | Nc1ncnc2c1nnn2[C@@H]1CCCC(F)(F)C1 [Example 88] | – |
| 310 nM | CC1CCN(c2nnc3c(N)nccn23)CC1C (single isomer, unassigned) [Example 229, 3-(3,4-dimethylpiperidin-1-yl) [1,2,4]triazolo[4,3-a]pyrazin-8-amine] | – |
| 170 nM | Nc1ncnc2c1nnn2C1CCCCC1F (centres unmarked) [Example 112] | – |
| 310 nM | C[C@@H]1C[C@H](C)C[C@@H](n2nnc3c(N)ncnc32)C1 [Example 105] | – |
| 160 nM | CC1(C)CCCN(c2nnc3c(N)ncc(-c4ccccc4)n23)C1 [Example 81] | – |
| 460 nM | Nc1nccn2c(C3CCC3)nnc12 [Example 18] | – |
| 230 nM | CC1CCCC(c2nnc3c(N)ncnn23)C1 (single isomer, unassigned) [Example 241, 3-(cis-3-methylcyclohexyl) [1,2,4]triazolo[3,4-f][1,2,4]triazin-8-amine] | – |
| 190 nM | Nc1ncnc2c1nnn2[C@H]1CCCN(c2ccccc2)C1 [Example 137, 3-[(3S)-1-phenylpiperidin-3-yl]-3H-[1,2,3]triazolo[4,5-d]pyrimidin-7-amine] | inhibition at 0.1 µM (hPDE8B; at 0.1 μmol/L, read-out: inhibition rate (%) at prescribed concentration, PDE8): 58% |
